{"source": "patent US6939887B2", "about": "“Benzimidazolidinone derivatives” (Sumitomo Pharmaceuticals Co., Ltd., priority 2001, dated 2005)", "note": "Counter-ions that a name gives are not always drawn."}
{"test_system": "pituitary cells (growth hormone release)", "experiment": "GH release promoting activity in cultured rat pituitary cells (GH level of supernatant by RIA)", "assay_type": "cell-based, rat (Wistar/ST)", "conditions": "compound concentration 10000 nM, 15 min at 37° C.", "description": "Benzimidazolidinone derivatives of the present invention were evaluated for their growth hormone (GH) release promoting activity by reference to the method described in a literature (R. G. Smith et al., Science, 260, 1640 (1993)).\nPituitary glands removed from 7-week-old male Wistar/ST rats were washed three times with HBSS(−) and the tissue was minced into small pieces (ca. 1 mm square) using a pair of scissors. The tissues were transferred to a 15 ml round-bottom centrifuge tube and washed three times with HBSS(−) (10 ml). An enzyme solution (0.1 ml per one pituitary gland) was added and enzymatic digestion was started in a water bath at 37° C. During the process, the mixture was pipetted every 5 minutes and the treatment was continued for ca 20-30 min until the cells were dispersed. The resulting cell suspension was centrifuged at 1200 rpm for 2-3 min at room temperature and the supernatant was discarded. A culture medium (8 ml) was added. Similar procedure was repeated twice and the dispersed cells were washed. The cells were plated in a 96-well plate (1×10^4 cells/100 μl/well) and incubation was started at 37° C. under 5% CO2 atmosphere.\nThree days after the start of the culture, the supernatant was discarded and an assay medium was added. The cells were incubated for 1.5 h and washed once with the assay medium. A test compound solution was added and the cells were reacted at 37° C. for 15 min in an incubator under 5% CO2. The supernatant was recovered and the GH level thereof was measured by RIA.\nA sample (50 μl) diluted with RIA buffer (1% BSA, 0.1% NaN3 and 25 mM EDTA/PBS (pH 7.6)), [^125I]-labeled GH solution (50 μl, ca. 10,000 cpm), and rabbit antiserum (diluted 1,000-fold) against rat GH (50 μl, Biogenesis Co) were placed in each well of a 96-well plate for RIA (Coster Co) and the mixture was reacted for 3 days at 4° C. Cell membrane fractions containing protein A were added and the mixture was allowed to stand for 20 min and centrifuged. The supernatant was recovered and the precipitates were washed with the RIA buffer. The ^125I amount was measured. The GH level of the sample was calculated from the standard curve drawn using the standard GH.\nThe composition of the culture medium was DMEM containing 10% horse serum, 2.5% fetal bovine serum, 1% nonessential amino acids, 1% antibiotics. The composition of the assay medium was 25 mM HEPES/culture medium (pH 7.3). The test compound solution was prepared by adding a compound solution (1 μl), adjusted to 1000-fold concentration with DMSO, to an assay medium (1 ml). Collagenase (400 mg), DNase type I (1 mg), and BSA (1 g) were dissolved in a 25 mM HEPES buffer (pH 7.4, 40 ml) containing 0.8% NaCl, 0.037% KCl, 0.9% glucose, 1% streptomycin-penicillin and 0.7 mM Na2HPO4, and 1 mg/ml CaCl2 (226 μl) was added. The resulting solution was adjusted to a final volume of 50 ml by adding a HEPES buffer and sterilized by filtration through a 0.22 μm filter and used as the enzyme solution.\nThe GH release promoting activity of the compounds of Examples is shown in the following. For the activity, the ratio of GH level of the supernatant in the presence of the test compound (compound concentration 10000 nM) to GH level of supernatant in the absence of the compound (GH level of supernatant in the presence of the compound/GH level of supernatant in the absence of the compound)."}
{"smiles": "CCN(CC)CCn1c(=O)n(-c2ccc(Cl)cc2)c2c(C(F)(F)F)cc(C(N)=O)cc21", "note": "[Example 7, 1-(4-chlorophenyl)-3-[2-(diethylamino)ethyl]-2-oxo-7-(trifluoromethyl)-2,3-dihydro-1H-benzimidazole-5-carboxamide trifluoroacetate]", "GH release promoting activity = (GH level of supernatant in the presence of the compound)/(GH level of supernatant in the absence of the compound)": 3.0}
{"smiles": "CCN(CC)CCn1c(=O)n(Cc2cccc(Cl)c2)c2c(C(F)(F)F)cc(C(N)=O)cc21", "note": "[Example 3, 1-(3-chlorobenzyl)-3-[2-(diethylamino)ethyl]-2-oxo-7-(trifluoromethyl)-2,3-dihydro-1H-benzimidazole-5-carboxamide trifluoroacetate]", "GH release promoting activity = (GH level of supernatant in the presence of the compound)/(GH level of supernatant in the absence of the compound)": 1.2}
{"smiles": "CCN(CC)CCn1c(=O)n(Cc2ccccc2C)c2c(C(F)(F)F)cc(C(N)=O)cc21", "note": "[Example 16, 3-[2-(diethylamino)ethyl]-1-(2-methylbenzyl)-2-oxo-7-(trifluoromethyl)-2,3-dihydro-1H-benzimidazole-5-carboxamide trifluoroacetate]", "GH release promoting activity = (GH level of supernatant in the presence of the compound)/(GH level of supernatant in the absence of the compound)": 1.0}
{"smiles": "CCN(CC)CCn1c(=O)n(Cc2ccccc2Cl)c2c(C(F)(F)F)cc(C(N)=O)cc21", "note": "[Example 5, 1-(2-chlorobenzyl)-3-[2-(diethylamino)ethyl]-2-oxo-7-(trifluoromethyl)-2,3-dihydro-1H-benzimidazole-5-carboxamide trifluoroacetate]", "GH release promoting activity = (GH level of supernatant in the presence of the compound)/(GH level of supernatant in the absence of the compound)": 1.3}
{"smiles": "CCN(CC)CCn1c(=O)n(Cc2cccc(C(F)(F)F)c2)c2c(C(F)(F)F)cc(C(N)=O)cc21", "note": "[Example 9, 3-[2-(diethylamino)ethyl]-2-oxo-7-(trifluoromethyl)-1-[3-(trifluoromethyl)benzyl]-2,3-dihydro-1H-benzimidazole-5-carboxamide trifluoroacetate]", "GH release promoting activity = (GH level of supernatant in the presence of the compound)/(GH level of supernatant in the absence of the compound)": 1.3}
{"smiles": "CCN(CC)CCn1c(=O)n(-c2ccc(Cl)cc2Cl)c2c(C(F)(F)F)cc(C(N)=O)cc21", "note": "[Example 8, 1-(2,4-dichlorophenyl)-3-[2-(diethylamino)ethyl]-2-oxo-7-(trifluoromethyl)-2,3-dihydro-1H-benzimidazole-5-carboxamide trifluoroacetate]", "GH release promoting activity = (GH level of supernatant in the presence of the compound)/(GH level of supernatant in the absence of the compound)": 2.1}
